In the NIST ThermoML archive (doi:10.1016/j.jct.2006.05.004):

How the values were obtained:
[1] = excess molar enthalpy (molar enthalpy of mixing); xn = mol fraction of the nth substance listed; conditions: 298.15 K, 101 kPa, Liquid
[2] = xn = mol fraction of the nth substance listed; conditions: 298.15 K, 101 kPa, Liquid

BrCCCBr [1,3-dibromopropane] + COC(C)=O
Conditions	excess molar enthalpy [kcal/mol]	mass density [kg/m3]
[1], x2 = 0.08	0.034	–
[1], x2 = 0.1613	0.0558	–
[1], x2 = 0.2406	0.0748	–
[1], x2 = 0.3177	0.0867	–
[1], x2 = 0.3862	0.091	–
[1], x2 = 0.4435	0.0934	–
[1], x2 = 0.4958	0.0935	–
[1], x2 = 0.5468	0.0894	–
[1], x2 = 0.5909	0.0838	–
[1], x2 = 0.6336	0.078	–
[1], x2 = 0.6509	0.0747	–
[1], x2 = 0.6702	0.0722	–
[1], x2 = 0.7094	0.0627	–
[1], x2 = 0.7687	0.0505	–
[1], x2 = 0.8316	0.0365	–
[1], x2 = 0.8928	0.0229	–
[1], x2 = 0.9501	0.0112	–
[2], x2 = 0.0821	–	1900.75
[2], x2 = 0.1456	–	1845.13
[2], x2 = 0.2131	–	1784.87
[2], x2 = 0.2862	–	1717.43
[2], x2 = 0.3503	–	1656.68
[2], x2 = 0.412	–	1596.53
[2], x2 = 0.4744	–	1533.88
[2], x2 = 0.535	–	1471.53
[2], x2 = 0.5898	–	1413.65
[2], x2 = 0.6476	–	1350.9
[2], x2 = 0.7027	–	1289.26
[2], x2 = 0.7565	–	1227.76
[2], x2 = 0.8086	–	1166.64
[2], x2 = 0.8558	–	1109.89
[2], x2 = 0.905	–	1048.62
[2], x2 = 0.9514	–	989.83

BrCCCCBr [1,4-dibromobutane] + COC=O
Conditions	excess molar enthalpy [kcal/mol]	mass density [kg/m3]
[1], x2 = 0.1163	0.0944	–
[1], x2 = 0.2218	0.152	–
[1], x2 = 0.3327	0.205	–
[1], x2 = 0.4395	0.235	–
[1], x2 = 0.518	0.245	–
[1], x2 = 0.581	0.243	–
[1], x2 = 0.5984	0.241	–
[1], x2 = 0.6591	0.226	–
[1], x2 = 0.7346	0.196	–
[1], x2 = 0.8107	0.155	–
[1], x2 = 0.8851	0.104	–
[1], x2 = 0.9503	0.0502	–
[2], x2 = 0.0901	–	1776.76
[2], x2 = 0.1948	–	1721.83
[2], x2 = 0.283	–	1670.26
[2], x2 = 0.3632	–	1619.15
[2], x2 = 0.4351	–	1569.44
[2], x2 = 0.5042	–	1517.68
[2], x2 = 0.5678	–	1466.2
[2], x2 = 0.6267	–	1414.75
[2], x2 = 0.6804	–	1364.36
[2], x2 = 0.7742	–	1267.13
[2], x2 = 0.8172	–	1217.73
[2], x2 = 0.8611	–	1164.21
[2], x2 = 0.8985	–	1115.55
[2], x2 = 0.937	–	1062.14
[2], x2 = 0.9687	–	1015.8

BrCCCCCBr [1,5-dibromopentane] + COC=O
Conditions	excess molar enthalpy [kcal/mol]	mass density [kg/m3]
[1], x2 = 0.1086	0.101	–
[1], x2 = 0.2259	0.174	–
[1], x2 = 0.336	0.227	–
[1], x2 = 0.4363	0.255	–
[1], x2 = 0.5163	0.265	–
[1], x2 = 0.5848	0.264	–
[1], x2 = 0.64	0.254	–
[1], x2 = 0.6892	0.241	–
[1], x2 = 0.7311	0.225	–
[1], x2 = 0.7667	0.207	–
[1], x2 = 0.8146	0.18	–
[1], x2 = 0.8709	0.14	–
[1], x2 = 0.9225	0.0935	–
[1], x2 = 0.9675	0.046	–
[2], x2 = 0.1109	–	1653.22
[2], x2 = 0.2235	–	1607
[2], x2 = 0.3094	–	1567.09
[2], x2 = 0.3956	–	1522.56
[2], x2 = 0.4606	–	1485.39
[2], x2 = 0.5307	–	1441.42
[2], x2 = 0.5985	–	1394.16
[2], x2 = 0.6548	–	1350.94
[2], x2 = 0.7035	–	1310.4
[2], x2 = 0.753	–	1265.54
[2], x2 = 0.7889	–	1230.37
[2], x2 = 0.8347	–	1181.99
[2], x2 = 0.9065	–	1097.57
[2], x2 = 0.9653	–	1017.86
[2], x2 = 0.9733	–	1006.52

BrCCBr [1,2-dibromoethane] + CCCCC(=O)OC
Conditions	excess molar enthalpy [kcal/mol]	mass density [kg/m3]
[1], x2 = 0.0457	0.00222	–
[1], x2 = 0.1054	0.00361	–
[1], x2 = 0.1756	0.00289	–
[1], x2 = 0.2495	-0.000765	–
[1], x2 = 0.3112	-0.0059	–
[1], x2 = 0.3523	-0.0102	–
[1], x2 = 0.3893	-0.0141	–
[1], x2 = 0.4631	-0.0184	–
[1], x2 = 0.5105	-0.0206	–
[1], x2 = 0.5845	-0.0217	–
[1], x2 = 0.6874	-0.0198	–
[1], x2 = 0.7978	-0.0149	–
[1], x2 = 0.9098	-0.00805	–
[2], x2 = 0.0413	–	2086.33
[2], x2 = 0.0834	–	2009.4
[2], x2 = 0.1257	–	1934.54
[2], x2 = 0.1717	–	1857.45
[2], x2 = 0.2221	–	1776.23
[2], x2 = 0.2644	–	1711.22
[2], x2 = 0.3124	–	1640.62
[2], x2 = 0.3717	–	1557.38
[2], x2 = 0.4812	–	1414.72
[2], x2 = 0.5471	–	1335.17
[2], x2 = 0.6142	–	1258.34
[2], x2 = 0.6822	–	1184.61
[2], x2 = 0.755	–	1109.85
[2], x2 = 0.833	–	1033.97
[2], x2 = 0.9091	–	963.97
